The subject of this experiment is TCRS containing NIH-3T3 fibroblasts cells. Kind of experiment: Detection of cellular translational control activities by TCRS reporter in drug-treated cells. It is filed as cell-based. The conditions noted are these: TCRS containing NIH-3T3 fibroblasts treated with drug. From the text: TCRS functions in cell lines. To examine the applicability of the TCRS in vertebrate cells we introduced the improved TCRS-vector into fibroblasts by transient transfection. […] Importantly, removal of the regulatory uORF by […] point mutation of its translation initiation site results in loss of translational controlled SR protein expression. Accordingly, the TCRS can be used to screen for drugs or to monitor pharmacological effects in tissue culture.
To examine the potential of the TCRS for detection of changes in translation control activities by external supplied drugs, we treated the TCRS containing NIH-3T3 fibroblasts cells with aminopurine and rapamycin, respectively.
Treatment with translational active drugs, such as rapamycin or aminopurine, result in differential activation of distinct translation control pathways, causing a shift in reporter protein expression. Shift in reporter expression was also observed with co-transfected expression vectors encoding eucaryotic translation initiation factors eIF2or eIF4E, or mutants thereof. Reporter protein expression shifts were dependent on an intact uORF.

For aminopurine, the “changes of the reporter peptide levels (PR and SR reporter protein expression from TCRS)” value was “Differential changes of the peptide levels were observed”.

For the origin of these results see US20040101888A1, “Vector system used in screening active substances” (Max-Delbruck-Centrum Fur Molekulare Medizin, priority 2001, published 2004).
